Laboratory results taken from patent US5217971A, “Thiazole compounds and pharmaceutical composition comprising the same” (Fujisawa Pharmaceutical Co., Ltd., priority 1989, dated 1993).

How the values were obtained:
platelet aggregation = test: Platelet aggregation ex vivo (1), arachidonic acid-induced, PRP after oral administration; format: in vivo, male Hartley guinea-pigs; details: guinea-pig, oral 1.0 mg/kg, 6 hours after administration, arachidonic acid final 50 μM
Experimental: Male Hartley guinea-pigs weighing about 300 g were used after 24 hours fasting. Six hours after oral administration of the test compound or vehicle of test compound (control), blood was collected into a tube containing 0.1 vol. of 3.8% sodium citrate and prepared platelet rich plasma (PRP).
To the 250 μl of PRP, 5 μl of arachidonic acid (final 50 μM) was added as an aggregation inducer. Aggregation was measured by using an aggregometer (NKK HEMA-TRACER 1).

rats = test: Acute toxicity in rats by peroral administration; format: in vivo
stomachs of the rats = test: Effect on stomach of rats; format: in vivo; details: 100 mg/kg, oral
thrombin = test: Assay for thrombin activity (S-2238 substrate); format: biochemical; details: concentration 1.0 × 10^-4 M, pH 8.0, 37° C.
Experimental: Thrombin activity was measured using the synthetic peptide substrate (S-2238, Kabivitrum).
After 900 μl of 0.1 M Tris-HCl buffer (pH 8.0), 100 μl of drug solution and 10 μl of 3U/ml thrombin were incubated at 37° C. for 5 min, 2 ml of 100 μM S-2238 was added.
The rate of increase in absorbance at 405 nm due to hydrolysis of S-2238 was measured with a spectrophotometer.
Inhibition (%) of drug was calculated as follows:
Inhibition (%)=(S-B)/A×100
A:Abs/min in the absence of drug
B:Abs/min in the presence of drug

| Structure (SMILES) | Inhibition (%) of platelet aggregation (platelet aggregation) | acute toxicity, deaths at 100 mg/kg (rats) | lesion in stomachs of rats (stomachs of the rats) | Inhibition (%) of thrombin activity (thrombin) |
| --- | --- | --- | --- | --- |
| COc1ccc(-c2nc(C(=O)N3CCN(C)CC3)sc2-c2ccc(OC)cc2)cc1.Cl [Example 1, 4,5-bis(4-methoxyphenyl)-2-(4methylpiperazin-1-yl)carbonylthiazole hydrochloride] | 100% | the dead at dose of 100 mg/kg could not be observed | No lesion was observed |  |
| COc1ccc(-c2nc(C(=O)NC(=N)N)sc2-c2ccc(OC)cc2)cc1 [Example 5, 4,5-bis(4-methoxyphenyl)-2-guanidinocarbonylthiazole] |  |  |  | 92.2% |
